Columns and labels:
[1] = biological target: T1, full length G2019 human LRRK2 (Homo sapiens, UniProt Q5S007, R50H); assay: Full length G2019 human LRRK2 inhibition mass spectrometry assay; format: biochemical; conditions: LRRKtide to phospho-LRRKtide conversion, RapidFire MS, 2 mM ATP
T1 construct: made in house; host or cells: HEK293 6E cells transduced with BacMam virus (virus generated in Sf9 cells)
Procedure, shortened: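 Purified full-length Flag-tagged G2019 LRRK2, ~25 nM, with 25 μM LRRKtide and 2 mM ATP in 50 mM Hepes pH 7.2, 10 mM MgCl2, 150 mM NaCl, 1 h at room temperature. Quenched with formic acid; phospho- and unphosphorylated LRRKtide measured by RapidFire MS. pIC50 from 4-parameter fit of % conversion, 11 points, top 100 μM.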

[2] = biological target: T2, LRRK2 kinase in SH-SY5Y cells over-expressing recombinant full length LRRK2 (Homo sapiens, UniProt Q5S007); assay: Recombinant cellular LRRK2 AlphaScreen assay (LRRK2 Ser935 phosphorylation); format: cell-based; conditions: 60 min
T2 construct: A BacMam virus expressing full length recombinant LRRK2 was purchased from Invitrogen; host or cells: SH-SY5Y human neuroblastoma cells transduced with BacMam LRRK2 virus
Procedure, shortened: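 SH-SY5Y cells transduced with BacMam full-length LRRK2 (MOI 50) for 24 h, then treated 60 min at 37 °C with compound (11-point 1:4 series, top 10 uM, 0.1% DMSO). Lysates probed by AlphaScreen for pSer935 vs total LRRK2; values fitted to a sigmoidal dose-response model.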

T2 sequence (Q5S007 whole entry): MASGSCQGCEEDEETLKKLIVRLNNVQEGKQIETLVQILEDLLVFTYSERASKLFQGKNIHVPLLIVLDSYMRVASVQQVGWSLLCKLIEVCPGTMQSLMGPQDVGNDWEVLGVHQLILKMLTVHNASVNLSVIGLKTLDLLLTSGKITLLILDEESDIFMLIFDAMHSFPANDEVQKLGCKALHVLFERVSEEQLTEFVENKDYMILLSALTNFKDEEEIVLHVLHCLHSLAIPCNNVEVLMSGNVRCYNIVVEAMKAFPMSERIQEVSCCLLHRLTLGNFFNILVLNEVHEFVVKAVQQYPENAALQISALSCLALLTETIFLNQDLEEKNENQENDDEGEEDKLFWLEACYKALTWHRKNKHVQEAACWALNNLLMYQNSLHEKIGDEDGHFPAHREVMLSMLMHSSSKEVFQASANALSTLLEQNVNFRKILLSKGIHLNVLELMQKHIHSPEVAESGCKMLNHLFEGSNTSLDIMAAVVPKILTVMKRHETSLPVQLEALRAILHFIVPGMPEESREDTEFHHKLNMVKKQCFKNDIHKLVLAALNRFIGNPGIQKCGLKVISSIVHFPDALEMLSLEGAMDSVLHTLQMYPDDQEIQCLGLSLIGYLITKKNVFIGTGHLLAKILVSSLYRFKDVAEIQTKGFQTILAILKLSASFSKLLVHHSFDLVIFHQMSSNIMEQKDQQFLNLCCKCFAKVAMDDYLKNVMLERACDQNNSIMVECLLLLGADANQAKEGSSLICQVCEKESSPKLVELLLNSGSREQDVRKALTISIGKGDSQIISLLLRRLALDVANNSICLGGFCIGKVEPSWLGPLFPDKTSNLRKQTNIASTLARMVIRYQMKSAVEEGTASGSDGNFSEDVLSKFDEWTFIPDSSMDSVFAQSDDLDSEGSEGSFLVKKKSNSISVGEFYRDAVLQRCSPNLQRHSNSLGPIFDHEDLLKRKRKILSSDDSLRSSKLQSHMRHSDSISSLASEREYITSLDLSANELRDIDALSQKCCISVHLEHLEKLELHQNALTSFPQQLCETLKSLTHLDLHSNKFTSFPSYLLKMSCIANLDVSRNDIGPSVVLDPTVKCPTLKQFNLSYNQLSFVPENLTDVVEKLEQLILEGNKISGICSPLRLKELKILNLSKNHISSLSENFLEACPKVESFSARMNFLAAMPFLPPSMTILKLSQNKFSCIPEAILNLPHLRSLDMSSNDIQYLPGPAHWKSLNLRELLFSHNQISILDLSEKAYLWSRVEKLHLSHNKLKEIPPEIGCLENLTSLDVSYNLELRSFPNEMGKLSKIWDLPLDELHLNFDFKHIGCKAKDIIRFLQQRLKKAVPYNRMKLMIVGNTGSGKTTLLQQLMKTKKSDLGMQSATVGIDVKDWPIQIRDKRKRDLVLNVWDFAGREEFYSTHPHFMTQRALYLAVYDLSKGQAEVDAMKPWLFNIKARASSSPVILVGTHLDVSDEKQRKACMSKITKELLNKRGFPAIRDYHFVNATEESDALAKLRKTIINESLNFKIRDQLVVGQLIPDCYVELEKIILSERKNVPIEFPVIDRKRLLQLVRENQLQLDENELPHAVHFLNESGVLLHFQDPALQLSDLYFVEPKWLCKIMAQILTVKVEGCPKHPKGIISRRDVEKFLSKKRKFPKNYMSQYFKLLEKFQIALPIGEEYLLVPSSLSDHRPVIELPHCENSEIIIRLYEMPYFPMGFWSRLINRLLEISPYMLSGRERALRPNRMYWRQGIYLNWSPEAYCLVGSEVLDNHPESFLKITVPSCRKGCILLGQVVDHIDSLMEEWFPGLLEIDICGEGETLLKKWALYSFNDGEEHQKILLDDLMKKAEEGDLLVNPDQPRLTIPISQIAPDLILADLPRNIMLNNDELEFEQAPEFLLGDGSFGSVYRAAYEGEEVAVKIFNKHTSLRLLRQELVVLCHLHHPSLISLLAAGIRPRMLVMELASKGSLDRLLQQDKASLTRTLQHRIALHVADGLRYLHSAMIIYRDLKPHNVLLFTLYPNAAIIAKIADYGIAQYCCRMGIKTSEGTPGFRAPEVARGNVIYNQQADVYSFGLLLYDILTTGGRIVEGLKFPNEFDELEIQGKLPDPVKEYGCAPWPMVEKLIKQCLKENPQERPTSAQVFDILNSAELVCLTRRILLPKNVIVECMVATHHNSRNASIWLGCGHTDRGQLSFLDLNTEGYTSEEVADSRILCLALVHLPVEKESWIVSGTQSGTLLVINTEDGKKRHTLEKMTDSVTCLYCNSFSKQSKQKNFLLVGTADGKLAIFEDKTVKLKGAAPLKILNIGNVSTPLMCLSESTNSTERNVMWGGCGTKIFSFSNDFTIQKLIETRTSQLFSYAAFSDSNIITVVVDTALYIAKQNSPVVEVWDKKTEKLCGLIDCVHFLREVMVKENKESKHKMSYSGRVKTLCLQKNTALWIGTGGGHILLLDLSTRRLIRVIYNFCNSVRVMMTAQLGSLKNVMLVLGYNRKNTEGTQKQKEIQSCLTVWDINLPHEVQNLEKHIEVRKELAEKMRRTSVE
T1 sequence (Q5S007 with tags, fused parts or gaps R50H): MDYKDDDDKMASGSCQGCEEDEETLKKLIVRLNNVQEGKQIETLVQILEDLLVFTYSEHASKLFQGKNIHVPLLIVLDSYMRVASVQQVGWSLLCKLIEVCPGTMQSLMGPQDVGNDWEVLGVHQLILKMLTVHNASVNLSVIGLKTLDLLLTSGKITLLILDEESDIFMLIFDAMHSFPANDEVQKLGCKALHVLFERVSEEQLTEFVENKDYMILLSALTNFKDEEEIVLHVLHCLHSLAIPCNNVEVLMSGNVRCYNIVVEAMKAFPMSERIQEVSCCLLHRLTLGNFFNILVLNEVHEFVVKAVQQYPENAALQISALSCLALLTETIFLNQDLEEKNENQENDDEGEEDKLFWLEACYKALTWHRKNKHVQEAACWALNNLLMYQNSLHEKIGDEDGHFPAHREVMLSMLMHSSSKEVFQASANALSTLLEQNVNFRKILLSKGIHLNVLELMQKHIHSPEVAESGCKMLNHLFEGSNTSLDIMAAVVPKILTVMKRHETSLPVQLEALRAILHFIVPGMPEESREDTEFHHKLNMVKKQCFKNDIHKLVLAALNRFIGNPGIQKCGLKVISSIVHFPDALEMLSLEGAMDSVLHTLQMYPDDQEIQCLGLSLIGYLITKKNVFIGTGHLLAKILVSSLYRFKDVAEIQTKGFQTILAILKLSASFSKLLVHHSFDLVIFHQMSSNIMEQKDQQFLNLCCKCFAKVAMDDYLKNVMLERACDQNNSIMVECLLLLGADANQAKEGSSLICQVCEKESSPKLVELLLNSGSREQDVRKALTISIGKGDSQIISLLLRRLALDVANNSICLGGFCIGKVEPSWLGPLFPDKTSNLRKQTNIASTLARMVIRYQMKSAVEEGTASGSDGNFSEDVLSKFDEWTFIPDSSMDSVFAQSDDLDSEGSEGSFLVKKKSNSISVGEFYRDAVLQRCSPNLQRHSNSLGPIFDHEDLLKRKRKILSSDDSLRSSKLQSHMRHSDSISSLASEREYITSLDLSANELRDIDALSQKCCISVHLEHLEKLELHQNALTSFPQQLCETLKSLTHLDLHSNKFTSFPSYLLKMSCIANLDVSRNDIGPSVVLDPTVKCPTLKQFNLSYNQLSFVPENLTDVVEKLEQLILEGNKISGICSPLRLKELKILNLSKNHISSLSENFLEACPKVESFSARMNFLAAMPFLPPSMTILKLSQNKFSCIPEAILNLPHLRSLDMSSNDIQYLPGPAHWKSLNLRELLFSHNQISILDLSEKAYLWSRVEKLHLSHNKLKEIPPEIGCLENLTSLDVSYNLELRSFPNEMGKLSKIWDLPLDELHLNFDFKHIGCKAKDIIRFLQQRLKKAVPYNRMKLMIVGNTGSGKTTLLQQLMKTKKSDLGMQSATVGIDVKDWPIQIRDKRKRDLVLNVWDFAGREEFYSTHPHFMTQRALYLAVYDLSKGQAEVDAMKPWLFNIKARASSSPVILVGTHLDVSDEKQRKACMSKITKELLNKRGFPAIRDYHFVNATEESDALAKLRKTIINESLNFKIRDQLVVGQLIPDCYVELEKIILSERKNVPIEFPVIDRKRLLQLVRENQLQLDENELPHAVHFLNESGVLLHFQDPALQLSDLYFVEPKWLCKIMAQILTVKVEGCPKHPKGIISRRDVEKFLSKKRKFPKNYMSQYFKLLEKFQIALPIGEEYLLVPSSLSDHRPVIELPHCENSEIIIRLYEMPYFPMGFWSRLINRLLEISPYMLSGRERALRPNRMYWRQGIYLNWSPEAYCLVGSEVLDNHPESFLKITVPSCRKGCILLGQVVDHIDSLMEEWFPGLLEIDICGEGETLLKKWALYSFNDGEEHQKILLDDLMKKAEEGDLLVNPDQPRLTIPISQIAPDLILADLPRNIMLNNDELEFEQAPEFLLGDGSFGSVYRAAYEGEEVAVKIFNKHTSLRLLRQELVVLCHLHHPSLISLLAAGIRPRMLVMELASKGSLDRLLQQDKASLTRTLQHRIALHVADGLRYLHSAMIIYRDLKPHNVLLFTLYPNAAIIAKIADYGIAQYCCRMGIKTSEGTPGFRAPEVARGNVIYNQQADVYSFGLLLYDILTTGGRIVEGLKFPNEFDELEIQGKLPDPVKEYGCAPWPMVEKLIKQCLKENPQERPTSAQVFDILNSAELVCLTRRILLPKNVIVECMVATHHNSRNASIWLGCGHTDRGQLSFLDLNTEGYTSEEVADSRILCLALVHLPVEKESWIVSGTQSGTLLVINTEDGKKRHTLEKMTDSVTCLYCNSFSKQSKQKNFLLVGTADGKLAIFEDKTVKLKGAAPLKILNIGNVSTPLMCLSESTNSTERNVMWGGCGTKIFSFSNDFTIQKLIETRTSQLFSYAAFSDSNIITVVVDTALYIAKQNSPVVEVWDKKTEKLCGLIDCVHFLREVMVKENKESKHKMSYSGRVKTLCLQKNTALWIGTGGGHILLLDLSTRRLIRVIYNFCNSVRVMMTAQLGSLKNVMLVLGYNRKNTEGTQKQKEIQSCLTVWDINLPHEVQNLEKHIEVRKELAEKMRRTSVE

IC50 [1] | IC50 [2] | Compound
≤ 100 nM | ≤ 100 nM | FC(F)(F)c1cnc2nc1NCCCOc1nn(C3CCCOC3)cc1N2 (stereo not drawn) [E130, 5-(Oxan-3-yl)-14-(trifluoromethyl)-8-oxa-2,5,6,12,16,17-hexaaza tricyclo[11.3.1.0^3,7]heptadeca-1(16),3,6,13(17),14-pentaene]
≤ 100 nM | ≤ 100 nM | Cc1c2c(nn1C1CCOCC1)OCC(F)C(C)Nc1nc(ncc1Cl)N2 (single isomer, unassigned) [E64, 14-Chloro-10-fluoro-4,11-dimethyl-5-(oxan-4-yl)-8-oxa-2,5,6,12, 16,17-hexaazatricyclo[11.3.1.0^3,7]heptadeca-1(16),3,6,13(17),14-pentaene]
≤ 100 nM | ≤ 100 nM | Cc1c2c(nn1CC(F)(F)F)OCCCNc1nc(ncc1Cl)N2 [E266, 14-Chloro-4-methyl-5-(2,2,2-trifluoroethyl)-8-oxa-2,5,6,12,16,17-hexaazatricyclo[11.3.1.0^3,7]heptadeca-1(16),3,6,13(17),14-pentaene]
≤ 10000 nM | > 10000 nM | C=C(C)c1cnc2nc1NCCCOc1nn(C3CCOCC3)c(C)c1N2 [E429, 4-Methyl-5-(oxan-4-yl)-14-(prop-1-en-2-yl)-8-oxa-2,5,6,12,16,17-hexaazatricyclo[11.3.1.0^3,7]heptadeca-1(16),3,6,13(17),14-pentaene]
≤ 100 nM | ≤ 100 nM | Cc1c2c(nn1C1CN(C3COC3)C1)OCC[C@@H](C)Nc1nc(ncc1Cl)N2 [E107, (11R)-14-chloro-4,11-dimethyl-5-[1-(oxetan-3-yl)azetidin-3-yl]-8-oxa-2,5,6,12,16,17-hexaazatricyclo[11.3.1.0^3,7]heptadeca-1(16),3,6,13(17),14-pentaene]
≤ 100 nM | ≤ 100 nM | Cc1c2c(nn1CCN1CCC(F)C1)OCCC(C)Nc1nc(ncc1Cl)N2 (single isomer, unassigned) [E218, 14-Chloro-5-[2-(3-fluoropyrrolidin-1-yl)ethyl]-4,11-dimethyl-8-oxa-2,5,6,12,16,17-hexaazatricyclo [11.3.1.0^3,7] heptadeca-1(16),3,6,13(17),14-pentaene]
≤ 100 nM | ≤ 100 nM | Cc1c2c(nn1C1COCCC1(F)F)OCC[C@@H](C)Nc1nc(ncc1Cl)N2 (single isomer, unassigned) [E305]
≤ 100 nM | ≤ 100 nM | Cc1c2c(nn1C1COC1)OCCCNc1nc(ncc1Cl)N2 [E12, 14-Chloro-4-methyl-5-(oxetan-3-yl)-8-oxa-2,5,6,12,16,17-hexaazatricyclo[11.3.1.0^3,7]heptadeca-1(16),3,6,13(17),14-pentaene]
≤ 100 nM | ≤ 100 nM | COCC1CCOc2nn(C3CCOCC3F)c(C)c2Nc2ncc(Cl)c(n2)N1 (single isomer, unassigned) [E351, 14-Chloro-5-(3-fluorooxan-4-yl)-11-(methoxymethyl)-4-methyl-8-oxa-2,5,6,12,16,17-hexaazatricyclo [11.3. 1.0^3,7]heptadeca-1(16),3,6,13(17),14-pentaene]
≤ 100 nM | ≤ 100 nM | Cc1c2c(nn1C1CC(F)CN(C3COC3)C1)OCC[C@@H](C)Nc1nc(ncc1Cl)N2 (stereo partly drawn) [E410, (11R)-14-Chloro-5-[5-fluoro-1-(oxetan-3-yl)piperidin-3-yl]-4,11-dimethyl-8-oxa-2,5,6,12,16,17 hexaazatricyclo[11.3.1.0^3,7] heptadeca-1(16),3,6,13(17),14-pentaene]
≤ 100 nM | ≤ 100 nM | Cc1c2c(nn1CC(C)(C)O)OCCC(C)Nc1nc(ncc1Cl)N2 (single isomer, unassigned) [E265, 1-{14-Chloro-4,11-dimethyl-8-oxa-2,5,6,12,16,17-hexaazatricyclo[11.3.1.0^3,7]heptadeca-1(17),3,6,13,15-pentaen-5-yl}-2-methylpropan-2-ol]
≤ 100 nM | ≤ 100 nM | Cc1c2c(nn1C1CCN(C3COC3)CC1)OCC[C@@H](C)Nc1nc(ncc1Cl)N2 [E65, (11R)-14-chloro-4,11-dimethyl-5-[1-(oxetan-3-yl)piperidin-4-yl]-8-oxa-2,5,6,12,16,17-hexaazatricyclo[11.3.1.0^3,7]heptadeca-1(16),3,6,13(17),14-pentaene]
≤ 100 nM | ≤ 100 nM | Cc1c2c(nn1C1CCCN(C3COC3)C1)OCC[C@@H](C)Nc1nc(ncc1Cl)N2 (single isomer, unassigned) [E67]
≤ 100 nM | ≤ 100 nM | Cc1c2c(nn1C1CCOCC1)OCCC(C)Nc1nc(ncc1C(F)(F)F)N2 (single isomer, unassigned) [E291, 4,11-Dimethyl-5-(oxan-4-yl)-14-(trifluoromethyl) -8-oxa-2,5,6,12,16,17-hexaazatricyclo[11.3.1.0^3,7]heptadeca-1(16),3,6,13(17),14-pentaene]
≤ 10000 nM | > 10000 nM | Cc1c2c(nn1C(C)(C)C(=O)O)OCCCNc1nc(ncc1Cl)N2 [E189, 2-{14-Chloro-4-methyl-8-oxa-2,5,6,12,16,17-hexaazatricyclo [11.3.1.0^3,7]heptadeca-1(16),3,6,13(17),14-pentaen-5-yl}-2-methylpropanoic acid]
≤ 100 nM | ≤ 100 nM | C#Cc1cnc2nc1N[C@H](C)CCOc1nn(C3CCOCC3)c(C)c1N2 [E401, (11R)-14-Ethynyl-4,11-dimethyl-5-(oxan-4-yl)-8-oxa-2,5,6,12,16,17-hexaazatricyclo[11.3.1.0^3,7]heptadeca-1(16),3,6,13(17),14-pentaene]
≤ 100 nM | ≤ 100 nM | CCc1[nH]nc2c1Nc1ncc(Cl)c(n1)N[C@H](C)CCO2 [E430, (11R)-14-Chloro-4-ethyl-11-methyl-8-oxa-2,5,6,12,16,17-hexaazatricyclo[11.3.1.0^3,7]heptadeca-1(16),3,6,13(17),14-entaene]
≤ 100 nM | ≤ 100 nM | Cc1c2c(nn1C1CCOCC1(C)C)OCC[C@@H](C)Nc1nc(ncc1Cl)N2 (single isomer, unassigned) [E422]
≤ 100 nM | ≤ 100 nM | Cc1c2c(nn1C1CCC(N3C[C@H]4C[C@@H]3CO4)CC1)OCCC(C)Nc1nc(ncc1Cl)N2 (single isomer, unassigned) [E57]
≤ 100 nM | ≤ 100 nM | Cc1c2c(nn1C1CC(OC(F)F)C1)OCC[C@@H](C)Nc1nc(ncc1Cl)N2 (stereo partly drawn) [E378, (11R)-14-Chloro-5-[3-(difluoromethoxy)cyclobutyl]-4,11-dimethyl-8-oxa-2,5,6,12,16,17-hexaazatricyclo[11.3.1.0^3,7] heptadeca-1(16),3,6,13(17),14-pentaene]
≤ 100 nM | ≤ 100 nM | Cc1c2c(nn1CCN1CCC(F)(F)C1)OCCC(C)Nc1nc(ncc1Cl)N2 (single isomer, unassigned) [E215, 14-Chloro-5-[2-(3,3-difluoropyrrolidin-1-yl)ethyl]-4,11-dimethyl-8-oxa-2,5,6,12,16,17-hexaazatricyclo [11.3.1.0^3,7]heptadeca-1(16),3,6,13(17),14-pentaene]
≤ 100 nM | ≤ 100 nM | COCC1CCOc2nn(C3CCOCC3)c(C)c2Nc2ncc(Cl)c(n2)N1 (single isomer, unassigned) [E35, 14-chloro-11-(methoxymethyl)-4-methyl-5-(oxan-4-yl)-8-oxa-2,5,6, 12,16,17-hexaazatricyclo-[11.3.1.0^3,7]heptadeca-1(16),3,6,13(17),14-pentaene]
≤ 10000 nM | ≤ 100 nM | Cc1c2c(nn1[C@H]1CCOC1)OCC[C@@H](C)Nc1nc(ncc1Cl)N2 [E46, (11R)-14-chloro-4,11-dimethyl-5-[(3S)-oxolan-3-yl]-8-oxa-2,5,6,12,16,17-hexaaza tricyclo [11.3.1.0^3,7]heptadeca-1(16),3,6,13(17),14-pentaene]
≤ 100 nM | ≤ 100 nM | Cc1c2c(nn1C1CN(C3CCOCC3)C1)OCC[C@@H](C)Nc1nc(ncc1Cl)N2 [E365, (11R)-14-Chloro-4,11-dimethyl-5-[1-(oxan-4-yl)azetidin-3-yl]-8-oxa-2,5,6,12,16,17-hexaazatricyclo[11.3.1.0^3,7]heptadeca-1(16), 3,6,13(17),14-pentaene]
≤ 100 nM | ≤ 100 nM | Cc1c2c(nn1C1CC(N3C[C@H]4C[C@@H]3CO4)C1)OCC[C@@H](C)Nc1nc(ncc1Cl)N2 (stereo partly drawn) [E317, (11R)-14-Chloro-4,11-dimethyl-5-{3-[(1R,4R)-2-oxa-5-azabicycle [2.2.1]heptan-5-yl]cyclobutyl}-8-oxa-2,5,6,12,16,17-hexaaza tricyclo[11.3.1.0^3,7]heptadeca-1(16),3,6,13(17),14-pentaene]
≤ 100 nM | ≤ 100 nM | Cc1c2c(nn1C1CCN(C3CCOC3)CC1)OCC[C@@H](C)Nc1nc(ncc1Cl)N2 (stereo partly drawn) [E382, (11R)-14-Chloro-4,11-dimethyl-5-[1-(oxolan-3-yl)piperidin-4-yl]-8-oxa-2,5,6,12,16,17-hexaazatricyclo[11.3.1.0^3,7]heptadeca-1(16),3,6,13(17),14-pentaene]
≤ 100 nM | ≤ 100 nM | COC1CNc2nc(ncc2Cl)Nc2c(nn(C3CC4CCC(C3)O4)c2C)OC1 (single isomer, unassigned) [E245, 14-Chloro-10-methoxy-4-methyl-5-{8-oxabicyclo[3.2.1]octan-3-yl}-8-oxa-2,5,6,12,16,17-hexaazatricyclo [11.3.1.0^3,7]heptadeca-1(16),3,6,13(17),14-pentaene]

From patent US20200392158A1, “INHIBITORS OF LEUCINE RICH REPEAT KINASE 2” (GLAXOSMITHKLINE INTELLECTUAL PROPERTY DEVELOPMENT LIMITED, priority 2017, published 2020)
